In general, Kd refers to the free concentration of one partner at which half of the binding sites on the other are occupied at equilibrium, for simple one-to-one binding. One may read the IC50 as the midpoint of a concentration-inhibition curve.

The text below walks through data of patent publication EP4603105A1, “PHARMACEUTICAL COMPOSITION CONTAINING CYCLIC COMPOUND HAVING SELECTIVE KRAS INHIBITORY EFFECT AGAINST HRAS AND NRAS” (CHUGAI SEIYAKU KABUSHIKI KAISHA, priority 2022, dated 2024).

Assay [1] has as its target GDP-bound KRAS wild-type protein (Homo sapiens, UniProt P01116). In words: Binding to KRAS by surface plasmon resonance (SPR), dissociation constant KD. The settings on record: Single Cycle Kinetics. The procedure, abridged:
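Recombinant RAS proteins bearing a biotinylated Avi tag and loaded with GDP served as the captured ligand, recaptured fresh every cycle. Binding responses were referenced to an uncoated surface and a buffer-only blank cycle. Dissociation constants were obtained by 1:1 model fitting at 30°C.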

Assay [2] has as its target GDP-bound NRAS wild-type protein (Homo sapiens, UniProt P01111). Nature of the assay: Binding to NRAS by surface plasmon resonance (SPR), KD and KD ratio to KRAS. The settings on record: ratio of KD for GDP-bound NRAS wild-type protein to KD for KRAS. An outline of the steps:
(§1)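 GDP-bound biotin-Avi RAS captured at ~100–300 RU, 30°C, pH 7.4 HBS containing 10 µM GDP, 10 mM MgCl2, 1 mM DTT, 0.01% Tween 20 and 4% DMSO. KD by 1:1 fitting.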

The target in a further assay is HRAS wild-type protein (Homo sapiens, UniProt P01112). In words: Binding to HRAS by surface plasmon resonance (SPR), KD and KD ratio to KRAS. The note with it: ratio of KD for HRAS wild-type protein to KD for KRAS. The procedure, abridged: as §1
For orientation: Surface plasmon resonance follows binding to a sensor surface in real time, without labels.

In assay [3] the test system is human lung cancer strain NCI-H441. In kind it is cell-based. The procedure, abridged:
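Readout: […] after the ATP-based reagent. Compound: serial dilutions in dimethyl sulfoxide.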

Structures are written as SMILES. *1 amine or outer side, *2 acyl side, *3 side chain or, on linkers, in order; H or OH if unused. Where a SMILES comes first, the peptide text is derived from it. Bridges are numbered along the chain shown (N, C = ends). [ ]: non-standard residue; d: D form. The star is where a group is joined. hPhe(3,5-F2-4-CF3) = N[C@@H](CCc1cc(F)c(C(F)(F)F)c(F)c1)C(=O)O; NPrPhe(4-CF3) = CCCN[C@@H](Cc1ccc(C(F)(F)F)cc1)C(=O)O; NMeGly(cPent) = CN[C@H](C(=O)O)C1CCCC1; X7 = C[C@@](N[*:1])(C(=O)[*:2])C1CC1; X3 = CCC[C@](C)(N[*:1])C(=O)[*:2]; NMeD = CN[C@@H](CC(=O)O)C(=O)O; NMeL = CN[C@@H](CC(C)C)C(=O)O; αMeL = CC(C)C[C@](C)(N)C(=O)O; αMeV = CC(C)[C@](C)(N)C(=O)O; αMeS = C[C@](N)(CO)C(=O)O; Morpholide = C1CN(*)CCO1; Aze = O=C(O)[C@@H]1CCN1; Sar = CNCC(=O)O; Allyl = C=CC*

Chain of GDP-bound KRAS wild-type protein (P01116 1-188 isoform P01116-2): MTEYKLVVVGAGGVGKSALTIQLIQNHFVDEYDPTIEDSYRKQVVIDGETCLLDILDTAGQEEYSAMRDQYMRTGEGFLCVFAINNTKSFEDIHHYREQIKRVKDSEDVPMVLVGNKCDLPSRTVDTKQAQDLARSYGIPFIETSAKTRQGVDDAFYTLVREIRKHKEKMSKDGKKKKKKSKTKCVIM
Chain of GDP-bound NRAS wild-type protein (P01111 whole entry): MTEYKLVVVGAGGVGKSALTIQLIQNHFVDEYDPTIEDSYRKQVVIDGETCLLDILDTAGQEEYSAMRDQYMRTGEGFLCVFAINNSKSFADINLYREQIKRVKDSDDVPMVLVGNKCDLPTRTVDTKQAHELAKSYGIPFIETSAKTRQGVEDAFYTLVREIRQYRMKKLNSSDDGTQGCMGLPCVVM
Chain of HRAS wild-type protein (P01112 whole entry): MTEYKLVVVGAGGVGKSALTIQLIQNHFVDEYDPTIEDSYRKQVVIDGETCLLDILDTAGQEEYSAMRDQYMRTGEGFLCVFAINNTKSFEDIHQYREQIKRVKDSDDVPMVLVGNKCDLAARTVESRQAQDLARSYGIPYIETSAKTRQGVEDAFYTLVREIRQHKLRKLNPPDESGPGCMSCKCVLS

`C=CCOC[C@]1(C)NC(=O)[C@@H]2CCCN2C(=O)[C@H](CCc2cc(F)c(C(F)(F)F)c(F)c2)NC(=O)CN(C)C(=O)[C@H](Cc2ccc(C(F)(F)F)cc2)N(CCC)C(=O)CN(C)C(=O)CN(C)C(=O)[C@H]([C@@H](C)CC)NC(=O)[C@H](CC(C)C)N(C)C(=O)C[C@@H](C(=O)N2CCOCC2)N(C)C(=O)[C@H](C2CCCC2)N(C)C1=O` [PP0763] ([NMeL]I[Sar][Sar][NPrPhe(4-CF3)][Sar][hPhe(3,5-F2-4-CF3)]P[αMeS](Allyl)[NMeGly(cPent)][NMeD]-Morpholide; lactam N-11): the Kd in assay [1] was found to be 0.98 nM. The “NRAS /KRAS” value in assay [2] is “B (a compound having 3 or more and less than 10 is denoted as B)”. Also, the “HRAS /KRAS” value on HRAS wild-type protein was “B (a compound having 3 or more and less than 10 is denoted as B)”. It took 83 nM to reach half-maximal inhibition in assay [3] (IC50).
As to `CCCN1C(=O)CN(C)C(=O)[C@@H]2CCN2C(=O)[C@H]([C@@H](C)CC)NC(=O)[C@H](CC(C)C)N(C)C(=O)C[C@@H](C(=O)N2CCOCC2)N(C)C(=O)[C@H](C2CCCC2)N(C)C(=O)[C@](C)(C2CC2)NC(=O)[C@@H]2CCCN2C(=O)[C@H](CCc2cc(F)c(C(F)(F)F)c(F)c2)NC(=O)CN(C)C(=O)[C@@H]1Cc1ccc(C(F)(F)F)cc1` [PP0772] ([NMeL]I[Aze][Sar][NPrPhe(4-CF3)][Sar][hPhe(3,5-F2-4-CF3)]P[X7][NMeGly(cPent)][NMeD]-Morpholide; lactam N-11), the dissociation constant (Kd) in assay [1] turned out to be 4.3 nM. Also, the “NRAS /KRAS” value in assay [2] was “B (a compound having 3 or more and less than 10 is denoted as B)”. Besides, the “HRAS /KRAS” value at HRAS wild-type protein is “B (a compound having 3 or more and less than 10 is denoted as B)”. This compound had a 50% inhibitory concentration (IC50) in assay [3] of 434 nM.
On to `CCCN1C(=O)CN(C)C(=O)[C@@H]2CCN2C(=O)[C@H]([C@@H](C)CC)NC(=O)[C@H](CC(C)C)N(C)C(=O)C[C@@H](C(=O)N2CCOCC2)N(C)C(=O)[C@H](C2CCCC2)N(C)C(=O)[C@](C)(C(C)C)NC(=O)[C@@H]2CCCN2C(=O)[C@H](CCc2cc(F)c(C(F)(F)F)c(F)c2)NC(=O)CN(C)C(=O)[C@@H]1Cc1ccc(C(F)(F)F)cc1` [PP0773] ([NMeL]I[Aze][Sar][NPrPhe(4-CF3)][Sar][hPhe(3,5-F2-4-CF3)]P[αMeV][NMeGly(cPent)][NMeD]-Morpholide; lactam N-11), for which the Kd in assay [1] is 4 nM. For the same compound, the “NRAS /KRAS” value in assay [2] was “B (a compound having 3 or more and less than 10 is denoted as B)”. Besides, at HRAS wild-type protein, the “HRAS /KRAS” value was “B (a compound having 3 or more and less than 10 is denoted as B)”. In addition, in assay [3], the half-maximal inhibitory concentration (IC50) was found to be 170 nM.
Regarding `CCCN1C(=O)CN(C)C(=O)[C@@H]2CCN2C(=O)[C@H]([C@@H](C)CC)NC(=O)[C@H](CC(C)C)N(C)C(=O)C[C@@H](C(=O)N2CCOCC2)N(C)C(=O)[C@H](C2CCCC2)N(C)C(=O)[C@](C)(CCC)NC(=O)[C@@H]2CCCN2C(=O)[C@H](CCc2cc(F)c(C(F)(F)F)c(F)c2)NC(=O)CN(C)C(=O)[C@@H]1Cc1ccc(C(F)(F)F)cc1` [PP0775] ([NMeL]I[Aze][Sar][NPrPhe(4-CF3)][Sar][hPhe(3,5-F2-4-CF3)]P[X3][NMeGly(cPent)][NMeD]-Morpholide; lactam N-11), the Kd in assay [1] worked out at 9.2 nM. For the same compound, the “NRAS /KRAS” value in assay [2] was “B (a compound having 3 or more and less than 10 is denoted as B)”. Moreover, the “HRAS /KRAS” value on HRAS wild-type protein is “B (a compound having 3 or more and less than 10 is denoted as B)”. In assay [3], half-maximal inhibition (IC50) was put at 417 nM.
Compound `CCCN1C(=O)CN(C)C(=O)[C@@H]2CCN2C(=O)[C@H]([C@@H](C)CC)NC(=O)[C@H](CC(C)C)N(C)C(=O)C[C@@H](C(=O)N2CCOCC2)N(C)C(=O)[C@H](C2CCCC2)N(C)C(=O)[C@](C)(CC(C)C)NC(=O)[C@@H]2CCCN2C(=O)[C@H](CCc2cc(F)c(C(F)(F)F)c(F)c2)NC(=O)CN(C)C(=O)[C@@H]1Cc1ccc(C(F)(F)F)cc1` [PP0776] ([NMeL]I[Aze][Sar][NPrPhe(4-CF3)][Sar][hPhe(3,5-F2-4-CF3)]P[αMeL][NMeGly(cPent)][NMeD]-Morpholide; lactam N-11) displayed a dissociation constant (Kd) in assay [1] of 15 nM. In assay [2], the “NRAS /KRAS” value is “B (a compound having 3 or more and less than 10 is denoted as B)”. Further, the “HRAS /KRAS” value at HRAS wild-type protein is “B (a compound having 3 or more and less than 10 is denoted as B)”. The same compound showed a concentration for half-maximal inhibition (IC50) in assay [3] of 591 nM.
